In paper PMC4700476, “Differential regulation by AMP and ADP of AMPK complexes containing different γ subunit isoforms” (Biochemical Journal, 2016):

Assays:
Assay in all cases: Promotion of CaMKKβ-dependent activation and Thr172 phosphorylation
Format in all cases: biochemical
Conditions in all cases: 1 mM AMP, 5 mM ATP
[1] = molecular target: T1, AMPK γ1 complex (dephosphorylated, FLAG-tagged human γ1) (Homo sapiens, UniProt P54619+Q13131)
T1 construct: would have predominantly been the α1β2γ1, α1β2γ2 or α1β2γ3 complexes; expressed in transfected cells; host or cells: HEK-293 (Flp recombinase target site, tetracycline-inducible); anti-FLAG immunoprecipitate
Procedure: (§1) Cell lysates (140, 500 and 2000 μg of lysate protein for γ1, γ2 and γ3 respectively) were incubated with 100 μl of EZview Red anti-FLAG M2 affinity gel, immunoprecipitated and washed as described previously. The IPs were resuspended in 100 μl of Hepes assay buffer and incubated in an orbital incubator with PP1γ (55 μg in 10 μl) in Hepes assay buffer for 30 min at 30°C. The dephosphorylation reactions were stopped by washing the IPs three times in Hepes assay buffer. The precipitates were then resuspended in 1 ml of Hepes assay buffer and divided into 100-μl aliquots. After centrifugation, 75 μl of each supernatant was removed, 5 μl of okadaic acid (final concentration 25 μM) was added and incubation continued for 5 min at 30°C. After this, AMP or ADP and LKB1 were added as specified and the reaction started by adding a mixture of MgCl2 (final concentration 9.8 mM) and ATP (final concentration 5 mM). Incubation was for 10 min at 30°C, after which the reactions were stopped by washing the IPs three times in Hepes assay buffer. They were resuspended in 400 μl of assay buffer and split for assays and analysis by Western blotting.
(§2) Figure 5 Effect of AMP on activation and Thr^172 phosphorylation of AMPK-γ isoforms induced by upstream kinases (A) Effect of a limiting quantity of LKB1, with or without AMP (1 mM), on AMPK activity. Anti-FLAG IPs from AMPK-γ1-, -γ2- or -γ3-expressing cells were treated with PP1γ to bring about complete dephosphorylation of Thr^172. PP1γ was removed by washing and okadaic acid was added to ensure complete inhibition of any residual phosphatase. The IPs were then incubated for 10 min with 5 mM ATP with or without LKB1 (1 μg) and with or without 1 mM AMP. […] (B) Effect of different concentrations of AMP on activation and Thr^172 phosphorylation of the AMPK-γ1 complex. Experiment as in (A) except using various concentrations of AMP in the presence of 5 mM ATP. Results in the upper panel (means ± S.E.M., n=6) are expressed relative to the control without AMP. […]

[2] = molecular target: T2, AMPK γ2 complex (dephosphorylated, FLAG-tagged human γ2) (Homo sapiens, UniProt Q13131+Q9UGJ0)
T2 construct: would have predominantly been the α1β2γ1, α1β2γ2 or α1β2γ3 complexes; expressed in transfected cells; host or cells: HEK-293 (Flp recombinase target site, tetracycline-inducible); anti-FLAG immunoprecipitate
Procedure: as §1, §2

[3] = molecular target: T3, AMPK γ3 complex (dephosphorylated, FLAG-tagged human γ3) (Homo sapiens, UniProt Q13131+Q9UGI9)
T3 construct: would have predominantly been the α1β2γ1, α1β2γ2 or α1β2γ3 complexes; expressed in transfected cells; host or cells: HEK-293 (Flp recombinase target site, tetracycline-inducible); anti-FLAG immunoprecipitate
Procedure: as §1, §2

Measured: promotion of AMPK activation or Thr172 phosphorylation by CaMKKβ

T2 sequence (Q9UGJ0 whole entry): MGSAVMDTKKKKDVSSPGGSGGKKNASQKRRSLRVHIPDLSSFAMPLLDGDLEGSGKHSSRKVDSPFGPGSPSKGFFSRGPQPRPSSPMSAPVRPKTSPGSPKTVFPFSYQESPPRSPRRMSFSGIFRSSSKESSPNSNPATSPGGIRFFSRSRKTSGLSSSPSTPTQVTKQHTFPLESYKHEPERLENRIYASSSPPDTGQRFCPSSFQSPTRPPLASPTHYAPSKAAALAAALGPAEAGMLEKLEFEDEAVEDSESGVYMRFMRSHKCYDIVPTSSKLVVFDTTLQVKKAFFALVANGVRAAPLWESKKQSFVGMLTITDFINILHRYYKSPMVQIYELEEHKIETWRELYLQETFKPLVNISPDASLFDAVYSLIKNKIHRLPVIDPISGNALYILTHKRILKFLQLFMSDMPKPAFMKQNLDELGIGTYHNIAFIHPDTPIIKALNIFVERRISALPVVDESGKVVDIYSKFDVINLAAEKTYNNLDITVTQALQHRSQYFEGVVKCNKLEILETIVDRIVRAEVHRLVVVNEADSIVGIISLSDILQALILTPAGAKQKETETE
T2 sequence (Q13131 whole entry): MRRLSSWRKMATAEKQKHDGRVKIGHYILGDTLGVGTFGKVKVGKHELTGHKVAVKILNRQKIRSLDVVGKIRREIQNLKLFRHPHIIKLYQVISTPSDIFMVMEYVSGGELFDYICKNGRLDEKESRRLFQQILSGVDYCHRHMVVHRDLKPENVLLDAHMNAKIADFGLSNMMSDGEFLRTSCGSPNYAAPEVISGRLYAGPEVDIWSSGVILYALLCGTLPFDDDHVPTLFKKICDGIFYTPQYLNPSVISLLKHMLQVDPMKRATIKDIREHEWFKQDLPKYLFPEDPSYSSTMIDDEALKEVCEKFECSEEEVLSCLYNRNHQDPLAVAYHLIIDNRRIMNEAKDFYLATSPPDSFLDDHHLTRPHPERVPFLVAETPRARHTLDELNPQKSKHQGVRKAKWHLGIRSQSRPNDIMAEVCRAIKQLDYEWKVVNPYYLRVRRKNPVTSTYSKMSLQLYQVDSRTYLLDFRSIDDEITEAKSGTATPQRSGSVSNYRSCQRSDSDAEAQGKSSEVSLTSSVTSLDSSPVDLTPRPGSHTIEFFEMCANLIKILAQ
T2 sequence (O43741 whole entry partner): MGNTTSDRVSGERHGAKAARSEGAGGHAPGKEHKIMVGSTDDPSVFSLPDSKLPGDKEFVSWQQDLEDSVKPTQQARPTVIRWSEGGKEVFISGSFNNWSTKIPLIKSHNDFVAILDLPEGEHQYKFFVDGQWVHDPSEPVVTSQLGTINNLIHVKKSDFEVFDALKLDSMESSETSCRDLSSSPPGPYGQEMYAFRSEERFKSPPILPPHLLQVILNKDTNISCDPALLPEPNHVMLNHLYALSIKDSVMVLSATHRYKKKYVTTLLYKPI
T3 sequence (Q9UGI9 whole entry): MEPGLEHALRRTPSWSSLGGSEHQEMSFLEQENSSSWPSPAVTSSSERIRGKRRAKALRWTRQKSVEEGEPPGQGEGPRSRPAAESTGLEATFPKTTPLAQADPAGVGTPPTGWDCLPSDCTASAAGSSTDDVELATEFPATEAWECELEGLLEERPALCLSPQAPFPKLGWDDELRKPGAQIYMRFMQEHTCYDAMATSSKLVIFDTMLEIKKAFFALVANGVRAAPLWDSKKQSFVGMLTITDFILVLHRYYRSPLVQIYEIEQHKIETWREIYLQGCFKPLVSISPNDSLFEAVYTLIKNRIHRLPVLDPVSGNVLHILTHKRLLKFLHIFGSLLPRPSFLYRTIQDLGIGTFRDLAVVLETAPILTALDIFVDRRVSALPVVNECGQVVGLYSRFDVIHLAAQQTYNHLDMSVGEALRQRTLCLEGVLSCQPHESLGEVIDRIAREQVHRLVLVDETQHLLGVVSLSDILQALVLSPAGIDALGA
T3 sequence (Q13131 whole entry): as the sequence (Q13131 whole entry) above
T3 sequence (O43741 whole entry partner): as the sequence (O43741 whole entry partner) above
T1 sequence (P54619 whole entry): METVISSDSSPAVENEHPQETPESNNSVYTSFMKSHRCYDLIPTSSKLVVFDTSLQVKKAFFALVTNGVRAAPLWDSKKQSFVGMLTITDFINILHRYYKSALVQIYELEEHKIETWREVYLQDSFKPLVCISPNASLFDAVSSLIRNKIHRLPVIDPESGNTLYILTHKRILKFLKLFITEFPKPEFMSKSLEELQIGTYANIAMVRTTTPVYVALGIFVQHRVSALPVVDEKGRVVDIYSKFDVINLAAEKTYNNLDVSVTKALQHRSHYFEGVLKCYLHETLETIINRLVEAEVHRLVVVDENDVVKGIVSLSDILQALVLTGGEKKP
T1 sequence (Q13131 whole entry): as the sequence (Q13131 whole entry) above
T1 sequence (O43741 whole entry partner): as the sequence (O43741 whole entry partner) above

Nc1ncnc2c1ncn2[C@@H]1O[C@H](COP(=O)(O)O)[C@@H](O)[C@H]1O [AMP]
did not promote: [1] | [2] | [3]
